pIC50: −log10 of the molar value. Like-named read-outs stand apart in the source and are kept apart here.

Experiment [1] has as its target His-tagged KRAS G12D protein (Homo sapiens (Human), UniProt P01116, G12D). The experiment in a line: KRAS G12D TR-FRET Assay. Particulars: biotinylated KRPep-2d, 10 μM GDP. Type of experiment: binding. The method, boiled down: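 His-KRAS G12D (20 nM working solution) preincubated with compound 30 min at rt in HEPES pH 7.4 buffer with 10 μM GDP, then biotinylated KRPep-2d added for 1 h. Eu-anti-His/streptavidin-d2 TR-FRET 665/615 ratio; IC50 from 4-parameter logistic fit.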
(TR-FRET usually uses a lanthanide donor and a delayed reading to cut background.)

Experiment [2] has as its target GDP-bound KRAS protein (aa 1-169), G12D and C118A; SOS-mediated nucleotide exchange (Homo sapiens (Human), UniProt P01116, C118A/G12D). The experiment in a line: KRAS G12D Coupled Nucleotide Exchange Assay. Type of experiment: biochemical. Particulars: 2 h compound pre-incubation, GTP, cRAF AlphaScreen. The method, boiled down:
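GDP-loaded KRAS (aa 1-169, G12D/C118A, N-His) preincubated 2 h with titrated compound in pH 7.4 HEPES/MgCl2/Triton buffer. SOS (aa 564-1049) plus GTP then added for 30 min. AlphaScreen readout; IC50 from 4-parameter logistic fit.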
A general note: Bead proximity is the source of the signal in Alpha formats.

The test system of experiment [3] is Phosphorylation of ERK1/2 in AsPC-1 cells. Briefly: Phospho-ERK1/2 MSD Assay. Type of experiment: cell-based. Particulars: for IC50: Homo sapiens, ASPC1, 2 h, read-out: 2 h p-ERK (AsPC-1 cells), IC50 (μM), AsPC-1 cells, 2 h compound treatment. The method, boiled down:
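AsPC-1 cells in 10% FBS RPMI 1640 were treated with a compound dose titration for 2 h at 37° C, then lysed in RIPA buffer with protease and phosphatase inhibitors. Phospho-ERK1/2 was measured by MSD whole-cell lysate immunoassay, and IC50 was derived by 4-parameter logistic fit.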

Chain of GDP-bound KRAS protein (aa 1-169), G12D and C118A; SOS-mediated nucleotide exchange (P01116 other isoform, or with tags, fused parts or gaps G12D/C118A): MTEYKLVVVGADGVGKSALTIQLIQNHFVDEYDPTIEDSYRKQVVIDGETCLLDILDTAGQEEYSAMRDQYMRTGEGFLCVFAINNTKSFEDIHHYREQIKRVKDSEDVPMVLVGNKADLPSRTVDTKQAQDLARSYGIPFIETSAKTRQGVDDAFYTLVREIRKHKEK
Chain of His-tagged KRAS G12D protein (P01116-2 other isoform, or with tags, fused parts or gaps G12D): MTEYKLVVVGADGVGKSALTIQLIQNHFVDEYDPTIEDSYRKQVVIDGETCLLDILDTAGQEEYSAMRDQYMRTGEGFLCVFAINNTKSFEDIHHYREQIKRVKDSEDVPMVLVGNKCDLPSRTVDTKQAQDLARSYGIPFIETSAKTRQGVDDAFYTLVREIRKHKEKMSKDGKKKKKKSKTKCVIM

As to `N#Cc1c(N)sc2c(F)ccc(-c3c(Cl)cc4c(N5CCOCC(F)C5)nc(OC[C@@]56CCCN5C[C@H](F)C6)nc4c3F)c12` (single isomer, unassigned) [Example 59], the pIC50 in experiment [1] is 8.30; in experiment [3] (read-out: 2 h p-ERK (AsPC-1 cells), IC50, AsPC-1 cells, 2 h compound treatment), 7.21. In experiment [2], this molecule came in with an IC50 of 2 nM.

For `N#Cc1c(N)sc2c(F)ccc(-c3c(Cl)cc4c(N5CCCC6(CCS(=O)(=O)C6)C5)nc(OC[C@@]56CCCN5C[C@H](F)C6)nc4c3F)c12` (stereo partly drawn) [Example 38, 2-Amino-4-(6-chloro-4-(2,2-dioxido-2-thia-7-azaspiro[4.5]decan-7-yl)-8-fluoro-2-(((2R,7aS)-2-fluorotetrahydro-1H-pyrrolizin-7a(5H)-yl)methoxy)quinazolin-7-yl)-7-fluorobenzo[b] thiophene-3-carbonitrile], the negative-log IC50 (pIC50) in experiment [1] and in experiment [2] was 8.00 in each case. The IC50 in experiment [3] was determined as 0.781 µM.

`C[C@@H]1CCCN1c1nc(OC[C@@]23CCCN2C[C@H](F)C3)nc2c(F)c(-c3ccc(F)c4sc(N)c(C#N)c34)c(Cl)cc12` [Example 66, 2-Amino-4-(6-chloro-8-fluoro-2-(((2R,7aS)-2-fluorotetrahydro-1H-pyrrolizin-7a(5H)-yl)methoxy)-4-((R)-2-methylpyrrolidin-1-yl)quinazolin-7-yl)-7-fluorobenzo[b] thiophene-3-carbonitrile]: the results for the pIC50 in experiment [1] and in experiment [2] were 7.62 and 7.80, respectively. In addition, in experiment [3], the IC50 stood at 0.586 µM.

Regarding `N#Cc1c(N)sc2c(F)ccc(-c3c(Cl)cc4c(N5CCC[C@H]5C#N)nc(OC[C@@]56CCCN5C[C@H](F)C6)nc4c3F)c12` [Example 53, (2S)-1-(7-(2-Amino-3-cyano-7-fluorobenzo[b]thiophen-4-yl)-6-chloro-8-fluoro-2-(((2R,7aS)-2-fluorotetrahydro-1H-pyrrolizin-7a(5H)-yl)methoxy)quinazolin-4-yl)pyrrolidine-2-carbonitrile], the pIC50 in experiment [1] and in experiment [2] was 9.00 each time. Also, the IC50 in experiment [3] turned out to be 0.119 µM.

With `N#Cc1c(N)sc2c(F)ccc(-c3c(Cl)cc4c(N5CCOCC(F)C5)nc(OC[C@@]56CCCN5C[C@H](F)C6)nc4c3F)c12` (single isomer, unassigned) [Example 58], the pIC50 in experiment [1] is 8.52. Further, the values for the IC50 in experiment [2] and in experiment [3] were 1 nM and 0.078 µM, respectively.

On to `N#Cc1c(N)sc2c(F)ccc(-c3c(Cl)cc4c(N5CCOC[C@@H](O)C5)nc(OC[C@@]56CCCN5C[C@H](F)C6)nc4c3F)c12` [Example 32, 2-Amino-4-(6-chloro-8-fluoro-2-(((2R,7aS)-2-fluorotetrahydro-1H-pyrrolizin-7a(5H)-yl)methoxy)-4-((S)-6-hydroxy-1,4-oxazepan-4-yl)quinazolin-7-yl)-7-fluorobenzo[b] thiophene-3-carbonitrile], for which the pIC50 in experiment [1] and in experiment [2] was 8.70 in each case. Further, in experiment [3], the IC50 was 0.079 µM.

Regarding `N#CC[C@@H]1CCCN1c1nc(OC[C@@]23CCCN2C[C@H](F)C3)nc2c(F)c(-c3ccc(F)c4sc(N)c(C#N)c34)c(Cl)cc12` [Example 50, 2-Amino-4-(6-chloro-4-((S)-2-(cyanomethyl)pyrrolidin-1-yl)-8-fluoro-2-(((2R,7aS)-2-fluorotetrahydro-1H-pyrrolizin-7a(5H)-yl)methoxy)quinazolin-7-yl)-7-fluorobenzo[b] thiophene-3-carbonitrile], the pIC50 in experiment [1] and in experiment [2] was 8.15 each time. Moreover, the IC50 in experiment [3] is 0.307 µM.

As to `C=Cc1cc2c(N3CCOCC(C)(O)C3)nc(OC[C@@]34CCCN3C[C@H](F)C4)nc2c(F)c1-c1ccc(F)c2sc(N)c(C#N)c12` (stereo partly drawn) [Example 61, 2-Amino-7-fluoro-4-(8-fluoro-2-(((2R,7aS)-2-fluorotetrahydro-1H-pyrrolizin-7a(5H)-yl)methoxy)-4-(6-hydroxy-6-methyl-1,4-oxazepan-4-yl)-6-vinylquinazolin-7-yl)benzo[b]thiophene-3-carbonitrile], the pIC50 in experiment [1] is 8.30; in experiment [2] it was 8.52. Further, the IC50 in experiment [3] turned out to be 0.05 µM.

Regarding `N#Cc1c(N)sc2c(F)ccc(-c3c(Cl)cc4c(N5CCCCC(F)C5)nc(OC[C@@]56CCCN5C[C@H](F)C6)nc4c3F)c12` (stereo partly drawn) [Example 27, 2-Amino-4-(6-chloro-8-fluoro-4-(3-fluoroazepan-1-yl)-2-(((2R,7aS)-2-fluorotetrahydro-1H-pyrrolizin-7a(5H)-yl)methoxy)quinazolin-7-yl)-7-fluorobenzo[b] thiophene-3-carbonitrile], the pIC50 in experiment [1] and in experiment [2] was 8.70 in each case. Also, the IC50 in experiment [3] is 0.043 µM.

Take `N#Cc1c(N)sc2c(F)ccc(-c3c(Cl)cc4c(N5CCCOCC5)nc(OC[C@@]56CCCN5C[C@H](F)C6)nc4c3F)c12` [Example 55, 2-Amino-4-(6-chloro-8-fluoro-2-(((2R,7aS)-2-fluorotetrahydro-1H-pyrrolizin-7a(5H)-yl)methoxy)-4-(1,4-oxazepan-4-yl)quinazolin-7-yl)-7-fluorobenzo[b]thiophene-3-carbonitrile]: the pIC50 in experiment [1] is 8.30; in experiment [2] it was 8.10. In addition, the IC50 in experiment [3] worked out at 0.102 µM.

In the case of `N#Cc1c(N)sc2c(F)ccc(-c3c(Cl)cc4c(N5CCCC6(CC(O)C6)C5)nc(OC[C@@]56CCCN5C[C@H](F)C6)nc4c3F)c12` (stereo partly drawn) [Example 64, 2-Amino-4-(6-chloro-8-fluoro-2-(((2R,7aS)-2-fluorotetrahydro-1H-pyrrolizin-7a(5H)-yl)methoxy)-4-(2-hydroxy-6-azaspiro[3.5]nonan-6-yl)quinazolin-7-yl)-7-fluorobenzo[b]thiophene-3-carbonitrile], the pIC50 in experiment [1] is 7.60; in experiment [2] it was 7.55. Besides, the IC50 in experiment [3] turned out to be 1.52 µM.

`CC1(O)CCCCN(c2nc(OC[C@@]34CCCN3C[C@H](F)C4)nc3c(F)c(-c4ccc(F)c5sc(N)c(C#N)c45)c(Cl)cc23)C1` (single isomer, unassigned) [Example 28] showed a pIC50 in experiment [1] of 8.52. Moreover, the figures for the IC50 in experiment [2] and in experiment [3] were 5 nM and 0.097 µM, respectively.

Turning to `N#Cc1c(N)sc2c(F)ccc(-c3c(Cl)cc4c(N5CCCC6(COC6)C5)nc(OC[C@@]56CCCN5C[C@H](F)C6)nc4c3F)c12` [Example 42, 2-Amino-4-(6-chloro-8-fluoro-2-(((2R,7aS)-2-fluorotetrahydro-1H-pyrrolizin-7a(5H)-yl)methoxy)-4-(2-oxa-6-azaspiro[3.5]nonan-6-yl)quinazolin-7-yl)-7-fluorobenzo[b] thiophene-3-carbonitrile], the pIC50 is 8.10 in experiment [1] and 8.00 in experiment [2]. Further, in experiment [3], the IC50 is 0.402 µM.

In the case of `N#Cc1c(N)sc2c(F)ccc(-c3c(Cl)cc4c(N5CCC[C@@H](C#N)C5)nc(OC[C@@]56CCCN5C[C@H](F)C6)nc4c3F)c12` [Example 54, (3R)-1-(7-(2-Amino-3-cyano-7-fluorobenzo[b]thiophen-4-yl)-6-chloro-8-fluoro-2-(((2R,7aS)-2-fluorotetrahydro-1H-pyrrolizin-7a(5H)-yl)methoxy)quinazolin-4-yl)piperidine-3-carbonitrile], the values for the pIC50 in experiment [1] and in experiment [2] were 7.85 and 7.89, respectively. The IC50 in experiment [3] was found to be 1.09 µM.

Take `N#Cc1c(N)sc2c(F)ccc(-c3c(Cl)cc4c(N5CCCCC5)nc(OC[C@@]56CCCN5C[C@H](F)C6)nc4c3F)c12` [Example 26, 2-Amino-4-(6-chloro-8-fluoro-2-(((2R,7aS)-2-fluorotetrahydro-1H-pyrrolizin-7a(5H)-yl)methoxy)-4-(piperidin-1-yl)quinazolin-7-yl)-7-fluorobenzo[6] thiophene-3-carbonitrile]: the pIC50 in experiment [1] was 8.22; in experiment [2], 8.15. Also, the IC50 in experiment [3] was found to be 0.601 µM.

Usually pIC50 stands for the IC50 on a negative log10 scale, so that one unit is a factor of ten. As a reminder, the IC50 is the point on the concentration scale where inhibition reaches its midpoint.

Values taken from US20250163064A1, “QUINAZOLINE COMPOUNDS AND USES THEREOF AS INHIBITORS OF MUTANT KRAS PROTEINS” (AMGEN INC., priority 2022, published 2025).
